# Patent US20070060629A1, “Large conductance calcium-activated k channel opener” (priority 2003, published 2007)
# Legend:
# [1] = system: isolated rabbit urinary bladder; assay: Relaxation effect on potassium-induced contraction of isolated rabbit urinary bladder; assay type: cell-based; conditions: Oryctolagus cuniculus; isolated rabbit urinary bladder strips pre-contracted with high-K+ (30 mM); relaxation relative to 10^-4 M papaverine as 100%; rank A, B or C; read-out: IC50 value (50% relaxation concentration)
# Description: Relaxation Effect on Potassium-Induced Contraction of Isolated Rabbit Urinary Bladder
# Urinary bladder was isolated from Male NZW rabbits (body weight: 2.0-3.5 kg) and immersed in ice-cold Krebs-bicarbonate solution (in mM: 118 NaCl, 4.7 KCl, 2.55 CaCl2, 1.18 MgSO4, 1.18 KH2PO4, 24.88 NaHCO3 and 11.1 glucose). The urinary bladder was cut into longitudinal strips (5 mm length, 3-4 mm width) after mucosal layer was removed.
# Preparations were mounted in organ baths containing 10 ml of Krebs solution maintained at 37° C. and gassed with 95% O2/5% CO2. Accordingly, preparations were stretched with an initial tension of 2.0±1.0 g, and changes in isometric tension were measured by force-displacement transducer. The preparations were pre-contracted by changing organ-bath solution into high-K^+ (30 mM) Krebs solution (in mM: 118 NaCl, […], 2.55 CaCl2, 1.18 MgSO4, 1.18 KH2PO4, 24.88 NaHCO3 and 11.1 glucose).
# After stable tension was obtained, compounds were added into organ baths cumulatively (10^−8 M-10^−4 M). The effects of compounds were expressed as a percentage of the maximum relaxation produced by 1O^−4 M papaverine as 100%. 50% relaxation concentration (IC50) was calculated and IC50 value range (μM) of compounds of the present invention was shown in the following Table 68 with a rank of A, B or C. These ranges are as mentioned below. 3 μM≧C>1 μM≧B>0.5 μM≧A
# anesthetized rats = assay: Inhibitory effect on the rhythmic bladder contractions induced by substance P in anesthetized rats; assay type: in vivo, rat; conditions: time during which frequency of rhythmic bladder contraction was completely inhibited; 0.25 mg/kg of compound, intravenous; substance P-infused anesthetized rats
# Description: Inhibitory Effect on the Rhythmic Bladder Contractions Induced by Substance P in Anesthetized Rats
# For the experiments, Sprague-Dawley female rats (9 to 12 weeks old) weighing between 200 to 300 g were used. After urethane anesthetization (subcutaneously administered with a dose of 1.2 g/kg), cannulae were placed in both right and left femoral veins. One intravenous catheter was used for administration of compounds, and the other was for the substance P (0.33 μg/kg/min) infusion. We also cannulated into ureter to pass urine. Polyethylene catheters were inserted into carotid artery for continuous monitoring of arterial blood pressure and heart rate. For continuous infusion, transurethral bladder catheter was inserted into the bladder through the urethra and tied in place by a ligature around the urethral orifice. One end of the catheter was attached to a pressure transducer in order to measure intravesical pressure. The other end of the catheter was used for infusion of saline into the bladder. After stabilization of blood pressure and heart rate and after the bladder was emptied, cystometry was performed by filling the bladder slowly with about 0.6 ml of saline. After about 10 minutes, intravenous infusion of substance P (0.33 μg/kg/min) was started for stabilization of the micturition reflex. Compounds were administered after stable rhythmic bladder contraction was obtained over 15 minutes. All compounds were dissolved or suspended in saline containing 0.5% Tween 80 for intravenous administration (0.1 ml/kg).
# Also, pre-administration of iberiotoxin, a selective large conductance calcium-activated K channel blocker (0.15 mg/kg, intravenous administration) reduced inhibitory effect of the compounds of the present invention on the rhythmic bladder contraction.
Compound,IC50 [1] [µM],100% inhibiting time (anesthetized rats) [min]
"Cc1onc(-c2ccccc2)c1-c1ccc(C(N)=O)c(O)c1 [Example 155, 2-hydroxy-4-(5-methyl-3-phenylisoxazol-4-yl)benzamide]",1 to 3,–
Cc1onc(-c2ccc(N(C)C)cc2)c1-c1ccc(S(N)(=O)=O)cc1 [Example 115],< 0.5,–
Cc1ccc(-c2cc(C(F)(F)F)nn2-c2ccccc2)cc1S(=O)(=O)NCCO [Example 46],1 to 3,–
Cc1cccc(-n2nc(C(F)(F)F)cc2-c2ccc(C)c(S(N)(=O)=O)c2)c1 [Example 45],1 to 3,–
"Cc1onc(-c2ccccc2)c1-c1ccc(C(=O)N[C@@H](C)CO)cc1 [Example 135, N-[(1S)-2-hydroxy-1-methylethyl]-4-(5-methyl-3-phenylisoxazol-4-yl)benzamide]",–,17.8
"Cc1onc(-c2ccccc2)c1-c1ccc(OCCO)cc1 [Example 152, 2-[4-(5-methyl-3-phenylisoxazol-4-yl)phenoxy]ethanol]",0.5 to 1,–
"COC(=O)NCCNS(=O)(=O)c1ccc(-n2nc(C(F)(F)F)cc2-c2ccc(C)cc2)cc1 [Example 59, methyl {2-[({4-[5-(4-methylphenyl)-3-(trifluoromethyl)-1H-pyrazol-1-yl]phenyl}sulfonyl)amino]-ethyl}carbamate]",1 to 3,5.7
Cc1onc(-c2cccnc2)c1-c1ccc(C(=O)NCCO)cc1 [Example 207],0.5 to 1,13.9
COCCNS(=O)(=O)c1ccc(-n2nc(C(F)(F)F)cc2-c2ccc(C)cc2)cc1 [Example 30],1 to 3,–
Cc1onc(-c2ccccc2)c1-c1ccc(S(=O)(=O)NO)cc1 [Example 171],–,12.8
Cc1ccc(-c2cc(C(F)(F)F)nn2-c2ccc(C(=O)NCCO)cc2)cc1 [Example 51],1 to 3,–
